Values after ≈ are worked out from the molar mass of the structure shown. Where two headings read alike, the source gives them in different places.
Key:
[1] = in vivo; cited from earlier work
Staphylococcus aureus [2] = test: Antibacterial activity (MIC) against Staphylococcus aureus as Gram-positive bacterium; format: cell-based; conditions: Staphylococcus aureus; Table 3, class symbols; read-out: Antibacterial Activity (MIC) Staph. aureus
Method: (§1) Some of the compounds of this invention were tested as to their antibacterial activity (MIC, mcg/ml) against Staph. aureus as Gram-positive bacterium and E. coli as Gram-negative bacterium. In the table, the antibacterial activity of 0.09 to 1.25 mcg/ml. is indicated as A1, and the antibacterial activity of more than 1.25 mcg/ml. and not more than 2.5 mcg/ml. is indicated as A2.

Escherichia coli [3] = test: Antibacterial activity (MIC) against Escherichia coli as Gram-negative bacterium; format: cell-based; conditions: Escherichia coli; Table 3, class symbols; read-out: Antibacterial Activity (MIC) E. coli
Method: as §1

Staphylococcus aureus [4] = test: Antibacterial activity (MIC) against Staphylococcus aureus as Gram-positive bacterium; format: cell-based; conditions: for MBC: Table 1, bacteriocidal, read-out: Staphylococcus aureus bacteriocidal action; for MIC: Table 1, bacteriostatic, read-out: Staphylococcus aureus bacteriostatic action (MIC)
Escherichia coli [5] = test: Antibacterial activity (MIC) against Escherichia coli as Gram-negative bacterium; format: cell-based; conditions: for MBC: Table 1, bacteriocidal, read-out: Escherichia coli bacteriocidal action; for MIC: Table 1, bacteriostatic, read-out: Escherichia coli bacteriostatic action (MIC)
in vivo = conditions: mouse
[6] = Acute toxicity LD50 on mouse; conditions: in vivo, sc

| Compound | toxicity [1] | MIC (Staphylococcus aureus [2]) | MIC (Escherichia coli [3]) | MBC (Staphylococcus aureus [4]) | MIC (Staphylococcus aureus [4]) | MBC (Escherichia coli [5]) | MIC (Escherichia coli [5]) | LD50 (in vivo; iv) | LD50 (in vivo; po) | LD50 [6] |
| --- | --- | --- | --- | --- | --- | --- | --- | --- | --- | --- |
| acriflavin | fairly high toxicity, and exhibit high toxicity in internal administration | – | – | – | – | – | – | – | – | – |
| CCc1c2ccccc2nc2c1ccc1ncc(C(=O)O)c(O)c12 [Compound F-635] | – | 0.09 to 1.25 µg/mL (≈ 0.283 to 3.93 µM) | 0.09 to 1.25 µg/mL (≈ 0.283 to 3.93 µM) | 0.62 µg/mL (≈ 1.95 µM) | 0.62 µg/mL (≈ 1.95 µM) | 1.25 µg/mL (≈ 3.93 µM) | 1.25 µg/mL (≈ 3.93 µM) | 186 mg/kg | > 5000 mg/kg | > 3000 mg/kg |
| Cc1c2ccccc2nc2c1ccc1ncc(C(=O)O)c(O)c12 [Compound F-636] | – | 0.09 to 1.25 µg/mL (≈ 0.296 to 4.11 µM) | 0.09 to 1.25 µg/mL (≈ 0.296 to 4.11 µM) | 1.25 µg/mL (≈ 4.11 µM) | 1.25 µg/mL (≈ 4.11 µM) | 2.5 µg/mL (≈ 8.22 µM) | 1.25 µg/mL (≈ 4.11 µM) | 235 mg/kg | > 5000 mg/kg | > 3000 mg/kg |
| O=C(O)c1cnc2ccc3cc4ccccc4nc3c2c1O [Compound F-631] | – | 0.09 to 1.25 µg/mL (≈ 0.31 to 4.31 µM) | 0.09 to 1.25 µg/mL (≈ 0.31 to 4.31 µM) | 1.25 µg/mL (≈ 4.31 µM) | 1.25 µg/mL (≈ 4.31 µM) | 1.25 µg/mL (≈ 4.31 µM) | 1.25 µg/mL (≈ 4.31 µM) | 230 mg/kg | > 5000 mg/kg | > 3000 mg/kg |

Source: patent publication US4060527A, “Pyrido[2,3-c]-acridine-1-hydroxy-2-carboxylic acid derivatives” (Fuji Chemical Industries, Ltd., priority 1975, dated 1977)
